Measured values from publication PMC3445454, “Broad and Cross-Clade CD4^+ T-Cell Responses Elicited by a DNA Vaccine Encoding Highly Conserved and Promiscuous HIV-1 M-Group Consensus Peptides” (PLoS ONE, 2012).
Residue numbers refer to the chain shown, from its start. Like-named read-outs stand apart in the source and are kept apart here. Ends that are not written are not given here.

Columns and labels:
Assay in all cases: biochemical
[1] = target: HLA-DR DRB1*01:01 (Homo sapiens, UniProt P01903+P01911, A100R/D57E/F55L/F60I/F76Y/I96L/L162R/M171V/P40L/Q125E/R42F/V115G/Y59C); format: binding
[2] = target: HLA-DR DRB1*07:01 (Homo sapiens, UniProt P01903+P01911, A100R/A102G/A103Q/D57E/D86V/E43K/F76Y/K127E/L162R/M171V/P40G/Q125H/Q99D/R33Q/R42Y/R54Q/S133A/S66F/T210M/V115G/Y107V/Y59L/Y89S); format: binding
[3] = target: HLA-DR DRB1*08:02 (Homo sapiens, UniProt P01903+P01911, A100R/A103L/A169T/F76Y/H45Y/I96F/K41T/L162R/M171V/P40S/Q125H/Q178H/Q39Y/Q99D/R218S/R42G/S66Y/V115G/W38E); format: binding
[4] = target: HLA-DR DRB1*10:01 (Homo sapiens, UniProt P01903+P01911, A100R/A169T/D57E/F55L/F60V/F69Y/F76Y/I96L/L162R/M171V/P40V/Q260P/Q39E/Q99R/R195Q/R42F/S149N/S66Y/T210M/V115G/V67A/W38E/Y59R/Y61H); format: binding
[5] = target: HLA-DR DRB1*12:01 (Homo sapiens, UniProt P01903+P01911, A100R/A169T/D57E/D86V/F55L/H45Y/K41T/L162R/M171V/P40S/Q125H/Q178H/Q39Y/Q99D/R42G/S66L/T262R/V114A/V67L/W38E/Y59H/Y61H/Y89S); format: binding
[6] = target: HLA-DR DRB1*16:02 (Homo sapiens, UniProt P01903+P01911, A100R/F76Y/I96L/Q99D/V115G); format: binding
[7] = target: HLA-DR DRB4*01:01 (Homo sapiens, UniProt P01903+P13762, G164S); format: binding
[8] = target: T1, HLA-DP DPA1*01:03/DPB1*04:01 (Homo sapiens, UniProt P04440+P20036); format: binding
T1 sequence (P20036 29-260): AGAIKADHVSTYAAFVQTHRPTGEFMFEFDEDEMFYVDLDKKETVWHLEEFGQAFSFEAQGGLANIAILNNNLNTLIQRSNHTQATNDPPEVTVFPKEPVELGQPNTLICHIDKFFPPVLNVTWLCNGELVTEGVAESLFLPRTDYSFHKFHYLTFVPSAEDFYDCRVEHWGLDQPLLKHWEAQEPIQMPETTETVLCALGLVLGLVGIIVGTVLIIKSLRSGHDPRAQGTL
T1 sequence (P04440 30-258): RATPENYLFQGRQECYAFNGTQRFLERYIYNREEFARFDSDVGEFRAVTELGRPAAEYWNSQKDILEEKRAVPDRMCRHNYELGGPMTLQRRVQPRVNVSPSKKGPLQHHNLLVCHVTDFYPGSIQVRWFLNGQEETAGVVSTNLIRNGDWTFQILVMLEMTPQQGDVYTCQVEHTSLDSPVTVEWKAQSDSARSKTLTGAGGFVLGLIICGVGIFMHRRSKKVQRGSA

[9] = target: T2, HLA-DP DPA1*02:01/DPB1*14:01 (Homo sapiens, UniProt P04440+P20036, A65V/A84D/A85E/E86D/F191V/F38H/G113D/G114E/G40L/I94L/K142R/L158P/L37V/M105V/M116V/M62Q/P115A/Q81R/R125K/T114A/T199I/T259P); format: binding
T2 sequence (P20036 29-260 A42M/M62Q/Q81R/T114A/K142R/L158P/F191V/T259P): T1 sequence (P20036 29-260) with A14M, M34Q, Q53R, T86A, K114R, L130P, F163V, T231P
T2 sequence (P04440 30-258 L37V/F38H/G40L/A65V/A84D/A85E/E86D/I94L/M105V/G113D/G114E/P115A/M116V/R125K/T199I/R223Q): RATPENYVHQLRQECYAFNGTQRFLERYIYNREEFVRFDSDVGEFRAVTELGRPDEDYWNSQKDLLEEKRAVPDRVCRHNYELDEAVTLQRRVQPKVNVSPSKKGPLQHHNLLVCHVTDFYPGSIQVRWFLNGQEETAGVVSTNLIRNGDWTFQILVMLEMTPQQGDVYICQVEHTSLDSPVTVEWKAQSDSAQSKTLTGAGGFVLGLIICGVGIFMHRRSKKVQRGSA

[10] = target: T3, HLA-DP DPA1*01:03/DPB1*20:01 (Homo sapiens, UniProt P04440+P20036, A65V/A84D/A85E/E86D/F38Y/G113D/G114E/G40L/I94L/L37V/M116V/P115A/R125K/T199I); format: binding
T3 sequence (P20036 29-260): T1 sequence (P20036 29-260)
T3 sequence (P04440 30-258 L37V/F38Y/G40L/A65V/A84D/A85E/E86D/I94L/G113D/G114E/P115A/M116V/R125K/T199I/V234M): T2 sequence (P04440 30-258 L37V/F38H/G40L/A65V/A84D/A85E/E86D/I94L/M105V/G113D/G114E/P115A/M116V/R125K/T199I/R223Q) with H9Y, V76M, Q194R, V205M

[11] = target: HLA-DP DPA1*02:01/DPB1*01:01 (Homo sapiens, UniProt P04440+P20036, F191V/F38Y/F64Y/G113D/G114E/K142R/L158P/L37V/M105V/M116V/M62Q/P115A/Q81R/R125K/R223Q/T114A/T199I/T259P)
[12] = target: HLA-DP DPA1*03:01/DPB1*04:02 (Homo sapiens, UniProt P04440+P20036, A42M/A65V/A84D/A85E/L207M/L97S)
[13] = read-out: Binding capacity/IC50 (nM) DRB1*01:01
[14] = read-out: Binding capacity/IC50 (nM) DRB1*07:01
[15] = read-out: Binding capacity/IC50 (nM) DRB1*08:02
[16] = read-out: Binding capacity/IC50 (nM) DRB1*10:01
[17] = read-out: Binding capacity/IC50 (nM) DRB1*12:01
[18] = read-out: Binding capacity/IC50 (nM) DRB1*16:02
[19] = read-out: Binding capacity/IC50 (nM) DPA1*01:03 DPB1*04:01
[20] = read-out: Binding capacity/IC50 (nM) DPA1*02:01 DPB1*14:01
[21] = read-out: Binding capacity/IC50 (nM) DPA1*01:03 DPB1*20:01
[22] = read-out: Binding capacity/IC50 (nM) DRB4*01:01

Chain of HLA-DP DPA1*02:01/DPB1*01:01 (P20036 29-260 A42M/M62Q/Q81R/T114A/K142R/L158P/F191V/T259P, other chains not shown): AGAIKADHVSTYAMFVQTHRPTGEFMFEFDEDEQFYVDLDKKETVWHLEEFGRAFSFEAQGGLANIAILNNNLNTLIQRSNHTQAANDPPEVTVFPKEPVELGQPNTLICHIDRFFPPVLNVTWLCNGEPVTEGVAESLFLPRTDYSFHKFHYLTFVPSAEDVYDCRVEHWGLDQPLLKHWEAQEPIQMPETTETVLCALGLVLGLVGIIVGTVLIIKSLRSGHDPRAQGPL

Molecule	IC50 [1, 13] [nM]	IC50 [2, 14] [nM]	IC50 [3, 15] [nM]	IC50 [4, 16] [nM]	IC50 [5, 17] [nM]	IC50 [6, 18] [nM]	IC50 [8, 19] [nM]	IC50 [9, 20] [nM]	IC50 [10, 21] [nM]	IC50 [11] [nM]	IC50 [12] [nM]	IC50 [7, 22] [nM]	IC50 [8] [nM]	IC50 [9] [nM]	further results
CC[C@H](C)[C@H](NC(=O)[C@H](Cc1ccc(O)cc1)NC(=O)CNC(=O)[C@H](CO)NC(=O)[C@H](C)NC(=O)[C@@H](NC(=O)[C@H](Cc1c[nH]cn1)NC(=O)[C@@H](NC(=O)[C@H](C)NC(=O)[C@@H](NC(=O)[C@H](CC(C)C)NC(=O)[C@@H](NC(=O)[C@@H](NC(=O)[C@H](CCCCN)NC(=O)CNC(=O)[C@@H](N)CCC(=O)O)[C@@H](C)CC)[C@@H](C)CC)C(C)C)C(C)C)C(C)C)C(=O)N[C@@H](CCC(=O)O)C(N)=O [integrase(69-85)]	0.56	70	11	4.8	2940	167	2830	1370	470	5930	212				IC50 [7]: 56 nM
CC[C@H](C)[C@H](NC(=O)[C@@H]1CCCN1C(=O)[C@H](CCC(=O)O)NC(=O)[C@@H](N)CCCCN)C(=O)N[C@H](C(=O)NCC(=O)N[C@@H](C)C(=O)N[C@@H](CCC(=O)O)C(=O)N[C@H](C(=O)N[C@@H](Cc1ccccc1)C(=O)N[C@@H](Cc1ccc(O)cc1)C(=O)N[C@H](C(=O)N[C@@H](CC(=O)O)C(=O)NCC(=O)N[C@@H](C)C(N)=O)C(C)C)[C@@H](C)O)C(C)C [RT(431-445)]	5.1	75	19	4.4	293	80			26100	205	132	243	4660	1350	
EAVRHFPRPWLHGL-NH2 [vpr(29-42)]										8610	139	278	17000	7690	IC50 [1]: 71 nM; IC50 [2]: 1390 nM; IC50 [3]: 130 nM; IC50 [4]: 311 nM; IC50 [5]: > 30000 nM; IC50 [6]: 367 nM; IC50 [10]: 31 nM
CC[C@H](C)[C@H](NC(=O)[C@H](CCCCN)NC(=O)[C@@H](NC(=O)[C@@H](NC(=O)[C@@H](N)CCC(N)=O)[C@@H](C)CC)[C@@H](C)O)C(=O)N[C@@H](CCC(N)=O)C(=O)N[C@@H](CC(N)=O)C(=O)N[C@@H](Cc1ccccc1)C(=O)N[C@@H](CCCNC(=N)N)C(=O)N[C@H](C(=O)N[C@@H](Cc1ccc(O)cc1)C(=O)N[C@@H](Cc1ccc(O)cc1)C(=O)N[C@@H](CCCNC(=N)N)C(=O)N[C@@H](CC(=O)O)C(=O)N[C@@H](CO)C(=O)N[C@@H](CCCNC(=N)N)C(=O)N[C@@H](CC(=O)O)C(=O)N1CCC[C@H]1C(=O)N[C@H](C(=O)N[C@@H](Cc1c[nH]c2ccccc12)C(N)=O)[C@@H](C)CC)C(C)C [integrase(216-235)]	0.7	63	8.8	45	6.6	7.1		145	39	400	89	2080	1070		
NYPIVQNLQGQMVHQAISPR-NH2 [p17(131-132)/p24(1-18)]	4.4	5420	71	59	940	68	1550	2990	952	2870	484	131			
CC[C@H](C)[C@H](NC(=O)[C@H](C)NC(=O)[C@@H](N)CCC(=O)O)C(=O)N[C@H](C(=O)N[C@@H](CCCNC(=N)N)C(=O)N[C@H](C(=O)N[C@@H](CC(C)C)C(=O)N[C@@H](CCC(N)=O)C(=O)N[C@@H](CCC(N)=O)C(=O)N[C@@H](CC(C)C)C(=O)N[C@@H](CC(C)C)C(=O)N[C@@H](Cc1ccccc1)C(=O)N[C@H](C(=O)N[C@@H](Cc1c[nH]cn1)C(=O)N[C@@H](Cc1ccccc1)C(=O)N[C@@H](CCCNC(=N)N)C(=O)N[C@H](C(=O)NCC(=O)N[C@@H](CS)C(=O)N[C@@H](CCC(N)=O)C(=O)N[C@@H](Cc1c[nH]cn1)C(=O)N[C@@H](CO)C(=O)N[C@@H](CCCNC(=N)N)C(N)=O)[C@@H](C)CC)[C@@H](C)CC)[C@@H](C)CC)[C@@H](C)CC [vpr(58-80)]							113			2630	96			3570	IC50 [1]: 305 nM; IC50 [2]: 885 nM; IC50 [3]: 61 nM; IC50 [4]: 170 nM; IC50 [5]: 845 nM; IC50 [6]: 588 nM; IC50 [7]: 475 nM; IC50 [10]: 398 nM
CC[C@H](C)[C@H](NC(=O)[C@@H](NC(=O)[C@H](CCCCN)NC(=O)[C@@H](NC(=O)[C@@H]1CCCN1C(=O)[C@H](Cc1c[nH]c2ccccc12)NC(=O)[C@H](CCCNC(=N)N)NC(=O)CNC(=O)[C@H](C)NC(=O)[C@H](CC(C)C)NC(=O)[C@H](CCCCN)NC(=O)[C@H](CC(C)C)NC(=O)[C@@H](NC(=O)[C@H](Cc1ccccc1)NC(=O)[C@H](Cc1ccc(O)cc1)NC(=O)[C@H](C)NC(=O)[C@@H](NC(=O)[C@@H](N)CCC(=O)O)[C@@H](C)O)[C@@H](C)CC)C(C)C)C(C)C)C(N)=O [integrase(96-113)]	4.3	1380	365	13	1510	106	232	12800	857	792	141	3080			
